In patent US20080152640A1, “Means and Methods For Treating a Disease Which is Associated With an Excess Transport of Hyaluronan Across a Lipid Bilayer” (priority 2003, published 2008):
Like-named read-outs stand apart in the source and are kept apart here.

How the values were obtained:
human skin fibroblasts = experiment: Proliferation of human skin fibroblasts (cell counting); assay type: cell-based; conditions: for IC50: read-out: Proliferation (IC50)
Method: Human fibroblasts were grown in […] in Dulbecco's modified Eagles medium supplemented with streptomycin/penicillin (100 units of each/ml), kanamycin (100 units/ml) and 10% foetal calf serum. Cell proliferation was determined by cell counting after trypsinisation three days after seeding.

MRP2 = MRP2 (Homo sapiens, UniProt Q92887); conditions: cited from earlier work
MRP5 = MRP5 (Homo sapiens, UniProt O15440); conditions: cited from earlier work
MRP5, sequence (O15440 whole entry): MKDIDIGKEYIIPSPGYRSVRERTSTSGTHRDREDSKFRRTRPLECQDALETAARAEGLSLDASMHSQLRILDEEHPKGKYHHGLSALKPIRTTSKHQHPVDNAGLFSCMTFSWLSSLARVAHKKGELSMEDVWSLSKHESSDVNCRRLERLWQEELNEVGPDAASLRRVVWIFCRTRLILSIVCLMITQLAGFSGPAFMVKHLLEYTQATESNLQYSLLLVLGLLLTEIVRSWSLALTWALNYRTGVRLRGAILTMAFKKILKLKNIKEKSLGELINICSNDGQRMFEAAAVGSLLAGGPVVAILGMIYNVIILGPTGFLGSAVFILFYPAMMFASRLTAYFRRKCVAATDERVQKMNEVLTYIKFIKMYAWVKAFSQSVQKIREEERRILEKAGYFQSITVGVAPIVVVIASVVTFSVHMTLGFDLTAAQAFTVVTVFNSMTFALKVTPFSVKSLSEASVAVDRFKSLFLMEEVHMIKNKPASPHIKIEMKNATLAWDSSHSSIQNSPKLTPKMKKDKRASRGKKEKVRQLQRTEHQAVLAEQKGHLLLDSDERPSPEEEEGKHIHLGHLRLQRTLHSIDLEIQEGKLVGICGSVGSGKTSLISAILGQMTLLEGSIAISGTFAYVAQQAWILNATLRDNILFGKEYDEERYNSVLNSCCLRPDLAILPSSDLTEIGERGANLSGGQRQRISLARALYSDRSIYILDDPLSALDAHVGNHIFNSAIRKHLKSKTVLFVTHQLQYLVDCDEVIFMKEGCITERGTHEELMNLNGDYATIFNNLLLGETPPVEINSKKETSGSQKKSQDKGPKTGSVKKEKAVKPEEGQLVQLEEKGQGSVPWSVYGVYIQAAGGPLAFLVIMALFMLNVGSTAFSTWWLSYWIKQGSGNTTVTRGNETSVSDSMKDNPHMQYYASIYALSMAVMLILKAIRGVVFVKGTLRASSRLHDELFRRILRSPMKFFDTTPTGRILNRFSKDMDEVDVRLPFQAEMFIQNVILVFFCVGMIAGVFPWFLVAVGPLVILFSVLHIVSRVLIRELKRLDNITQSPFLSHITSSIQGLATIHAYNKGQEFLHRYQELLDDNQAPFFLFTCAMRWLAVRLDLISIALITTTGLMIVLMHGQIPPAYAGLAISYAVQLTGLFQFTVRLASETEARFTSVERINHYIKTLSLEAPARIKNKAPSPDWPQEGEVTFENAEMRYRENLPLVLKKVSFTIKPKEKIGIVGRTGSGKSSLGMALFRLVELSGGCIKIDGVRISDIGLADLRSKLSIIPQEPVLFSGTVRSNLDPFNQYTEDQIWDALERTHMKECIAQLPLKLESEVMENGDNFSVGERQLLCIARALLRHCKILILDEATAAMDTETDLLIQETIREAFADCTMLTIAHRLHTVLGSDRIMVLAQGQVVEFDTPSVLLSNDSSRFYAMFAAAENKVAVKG

hyaluronan transport = experiment: Inhibition of hyaluronan transport (export) from human fibroblasts, discussion of Example 9; conditions: for inhibition of hyaluronan transport (words): human fibroblasts; for IC50: Homo sapiens, Fibroblast, read-out: IC50 for hyaluronan transport (export)
Method: Cells from five culture flasks (180 cm2 growth area) were washed with cold phosphate buffered saline (PBS), harvested with the aid of a rubber policeman, sedimented at 1500 g for 5 min and suspended in 30 ml of ice-cold PBS. The cells were transferred into a Parr-cell disruption bomb, exposed to a nitrogen pressure of 900 psi for 15 min and disrupted by nitrogen cavitation [18] and the particulate fraction was obtained by centrifugation at 40000 g for 20 min. […] Hyaluronan synthesis was stopped by adding a solution of 10% sodium dodecylsuifate (SDS) to a final concentration of 1%. The mixtures were applied to descending paper chromatography that was developed with ethanol/aq. 1 M ammonium acetate pH 5.5 (13:7) as solvent. After 18 h the radioactivity of [14C]hyaluronan at the origin was determined.
Trypsinised fibroblasts were suspended in Dulbecco's medium at 10^5 cells/ml and 100 μl aliquots were transferred to a 96 well microtiter plate. The first row received 200 μl of the suspension and 20 μl of the multidrug resistance inhibitors dissolved in DMSO at concentrations of 4 mM. A serial dilution to the inhibitors was established by transfer of 100 μl aliquots from the first row to the following rows. All experiments were performed in duplicates. […] The cells were incubated for 2 days at 37° C. and aliquots (5 and 20 μl) of the culture medium were used for measurement of the hyaluronan concentration in the cell culture medium by an ELISA [19]. […] The mixtures were transferred to the hyaluronan-coated test plate and incubated for 1 hour at 37° C. The microtiter plate was washed three times with buffer A and incubated with 100 μl/well of a solution of streptavidin-horseraddish-peroxidase (Amersham) at a dilution of 1:100 in phosphate buffered saline, 0.1% Tween-20 for 30 min at room temperature. The plate was washed five times with buffer A and the colour was developed by incubation with a 100 μl/well of a solution of 5 mg o-phenylenediamine and 5 μl 30% H2O2 in 10 ml of 0.1 M citrate-phosphate buffer pH 5.3 for 25 min at room temperature. The adsorption was read at 490 nm. The concentrations in the samples were calculated from a logarithmic regression curve of the hyaluronan standard solutions.
Three parameters were measured: 1. The amount of hyaluronan produced during growth into the culture supernatant. 2. The hyaluronan synthase activity in particulate membrane fractions to eliminate the possibility that inhibition of hyaluronan production in cell culture could be caused indirectly by cellular mediators. 3. The effect on cell proliferation, because hyaluronan synthesis is also required for detachment during mitosis and growth of the human HT1080 cell line [14].

MRP1 = MRP1 (Homo sapiens, UniProt P33527); conditions: cited from earlier work
MRP1, sequence (P33527 whole entry): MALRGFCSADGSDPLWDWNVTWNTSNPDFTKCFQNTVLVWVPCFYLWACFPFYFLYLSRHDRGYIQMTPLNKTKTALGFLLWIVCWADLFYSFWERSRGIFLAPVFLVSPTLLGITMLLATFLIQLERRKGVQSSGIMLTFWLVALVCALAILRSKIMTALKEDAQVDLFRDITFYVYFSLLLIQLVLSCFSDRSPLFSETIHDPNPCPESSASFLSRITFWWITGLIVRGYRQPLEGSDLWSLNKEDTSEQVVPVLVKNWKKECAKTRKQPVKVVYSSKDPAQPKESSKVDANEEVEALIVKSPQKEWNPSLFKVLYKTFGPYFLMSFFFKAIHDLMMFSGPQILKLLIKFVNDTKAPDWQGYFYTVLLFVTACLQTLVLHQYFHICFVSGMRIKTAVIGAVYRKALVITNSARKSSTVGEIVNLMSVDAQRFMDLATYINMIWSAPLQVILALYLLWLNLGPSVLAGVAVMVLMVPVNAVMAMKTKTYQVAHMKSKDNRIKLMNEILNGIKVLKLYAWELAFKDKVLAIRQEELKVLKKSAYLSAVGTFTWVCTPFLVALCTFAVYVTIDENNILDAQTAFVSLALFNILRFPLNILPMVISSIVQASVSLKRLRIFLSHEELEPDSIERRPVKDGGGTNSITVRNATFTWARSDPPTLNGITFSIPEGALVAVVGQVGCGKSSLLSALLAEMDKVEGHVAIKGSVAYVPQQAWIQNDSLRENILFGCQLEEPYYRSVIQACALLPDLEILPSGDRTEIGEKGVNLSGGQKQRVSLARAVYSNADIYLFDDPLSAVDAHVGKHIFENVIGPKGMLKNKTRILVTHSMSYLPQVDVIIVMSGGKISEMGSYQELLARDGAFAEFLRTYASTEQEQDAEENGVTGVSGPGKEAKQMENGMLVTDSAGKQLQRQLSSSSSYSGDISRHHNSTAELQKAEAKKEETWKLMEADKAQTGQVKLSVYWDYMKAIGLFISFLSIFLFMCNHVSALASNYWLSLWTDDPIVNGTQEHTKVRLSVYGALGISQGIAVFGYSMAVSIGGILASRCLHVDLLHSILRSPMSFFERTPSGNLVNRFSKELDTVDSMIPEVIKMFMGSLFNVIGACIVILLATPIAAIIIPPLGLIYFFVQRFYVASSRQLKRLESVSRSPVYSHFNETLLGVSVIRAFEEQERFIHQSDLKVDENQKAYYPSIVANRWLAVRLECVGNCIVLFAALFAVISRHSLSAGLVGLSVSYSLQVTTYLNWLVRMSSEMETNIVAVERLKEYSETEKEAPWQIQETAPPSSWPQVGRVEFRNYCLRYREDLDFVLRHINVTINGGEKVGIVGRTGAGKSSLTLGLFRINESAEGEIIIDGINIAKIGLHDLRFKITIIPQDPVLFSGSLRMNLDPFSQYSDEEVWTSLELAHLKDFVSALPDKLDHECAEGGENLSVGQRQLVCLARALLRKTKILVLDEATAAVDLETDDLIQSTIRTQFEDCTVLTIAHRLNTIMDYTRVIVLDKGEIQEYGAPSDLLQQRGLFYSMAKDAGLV

MRP4 = biological target: T1, MRP4 (Homo sapiens, UniProt O15439); conditions: cited from earlier work
T1 sequence (O15439 1-1325): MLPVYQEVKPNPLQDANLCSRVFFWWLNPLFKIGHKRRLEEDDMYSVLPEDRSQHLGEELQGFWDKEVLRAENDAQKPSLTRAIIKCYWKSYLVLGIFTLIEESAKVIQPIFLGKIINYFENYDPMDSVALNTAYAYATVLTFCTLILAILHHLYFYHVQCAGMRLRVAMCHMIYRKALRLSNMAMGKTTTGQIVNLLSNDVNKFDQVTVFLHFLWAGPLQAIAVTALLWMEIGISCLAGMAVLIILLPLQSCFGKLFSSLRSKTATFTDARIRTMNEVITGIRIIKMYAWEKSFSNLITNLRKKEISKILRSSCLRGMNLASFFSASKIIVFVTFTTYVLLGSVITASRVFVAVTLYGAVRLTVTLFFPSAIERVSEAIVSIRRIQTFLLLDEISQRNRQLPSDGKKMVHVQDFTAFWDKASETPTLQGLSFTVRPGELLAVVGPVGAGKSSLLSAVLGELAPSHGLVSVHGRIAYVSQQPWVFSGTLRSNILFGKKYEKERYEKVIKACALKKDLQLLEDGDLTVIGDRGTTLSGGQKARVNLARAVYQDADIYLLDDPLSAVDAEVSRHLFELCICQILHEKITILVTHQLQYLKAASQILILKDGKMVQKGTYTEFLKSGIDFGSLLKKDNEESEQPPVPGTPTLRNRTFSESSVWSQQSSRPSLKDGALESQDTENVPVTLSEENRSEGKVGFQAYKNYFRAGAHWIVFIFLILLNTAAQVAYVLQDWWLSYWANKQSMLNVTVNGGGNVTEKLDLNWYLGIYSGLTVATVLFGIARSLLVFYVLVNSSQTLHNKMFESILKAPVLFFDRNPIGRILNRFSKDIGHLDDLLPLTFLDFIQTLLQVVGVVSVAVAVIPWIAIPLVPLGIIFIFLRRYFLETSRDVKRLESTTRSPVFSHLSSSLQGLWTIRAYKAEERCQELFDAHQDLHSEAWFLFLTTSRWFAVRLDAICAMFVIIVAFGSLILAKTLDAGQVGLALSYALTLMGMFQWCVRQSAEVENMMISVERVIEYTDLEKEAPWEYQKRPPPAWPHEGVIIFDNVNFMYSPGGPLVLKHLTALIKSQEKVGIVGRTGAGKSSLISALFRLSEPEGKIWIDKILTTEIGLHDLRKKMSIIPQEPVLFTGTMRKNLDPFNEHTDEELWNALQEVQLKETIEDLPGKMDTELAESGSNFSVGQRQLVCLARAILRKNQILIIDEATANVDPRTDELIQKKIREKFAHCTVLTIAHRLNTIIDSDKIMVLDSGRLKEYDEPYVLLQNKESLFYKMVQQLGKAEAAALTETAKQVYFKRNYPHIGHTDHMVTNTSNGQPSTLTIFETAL

human fibroblasts [1] = experiment: Hyaluronan production of human fibroblasts (ELISA of culture medium); assay type: cell-based; conditions: for IC50: read-out: HA production (IC50); for hyaluronan in culture medium: human skin fibroblasts / fibroblast cell line, increasing concentrations, 3 days
MRP3 = MRP3 (Homo sapiens, UniProt O15438); conditions: cited from earlier work
hyaluronan synthase = conditions: for hyaluronan transport / synthase activity in membranes: membranes from human fibroblasts; for IC50: read-out: HA synthase activity (IC50), membranes of human fibroblasts
ABCA = conditions: ABCA1; read-out: IC50, secretion of macrophage inhibitory factor (ABCA1); cited from earlier work
MDR1 = MDR1 (Homo sapiens, UniProt P08183); conditions: cited from earlier work
MDR1, sequence (P08183 whole entry): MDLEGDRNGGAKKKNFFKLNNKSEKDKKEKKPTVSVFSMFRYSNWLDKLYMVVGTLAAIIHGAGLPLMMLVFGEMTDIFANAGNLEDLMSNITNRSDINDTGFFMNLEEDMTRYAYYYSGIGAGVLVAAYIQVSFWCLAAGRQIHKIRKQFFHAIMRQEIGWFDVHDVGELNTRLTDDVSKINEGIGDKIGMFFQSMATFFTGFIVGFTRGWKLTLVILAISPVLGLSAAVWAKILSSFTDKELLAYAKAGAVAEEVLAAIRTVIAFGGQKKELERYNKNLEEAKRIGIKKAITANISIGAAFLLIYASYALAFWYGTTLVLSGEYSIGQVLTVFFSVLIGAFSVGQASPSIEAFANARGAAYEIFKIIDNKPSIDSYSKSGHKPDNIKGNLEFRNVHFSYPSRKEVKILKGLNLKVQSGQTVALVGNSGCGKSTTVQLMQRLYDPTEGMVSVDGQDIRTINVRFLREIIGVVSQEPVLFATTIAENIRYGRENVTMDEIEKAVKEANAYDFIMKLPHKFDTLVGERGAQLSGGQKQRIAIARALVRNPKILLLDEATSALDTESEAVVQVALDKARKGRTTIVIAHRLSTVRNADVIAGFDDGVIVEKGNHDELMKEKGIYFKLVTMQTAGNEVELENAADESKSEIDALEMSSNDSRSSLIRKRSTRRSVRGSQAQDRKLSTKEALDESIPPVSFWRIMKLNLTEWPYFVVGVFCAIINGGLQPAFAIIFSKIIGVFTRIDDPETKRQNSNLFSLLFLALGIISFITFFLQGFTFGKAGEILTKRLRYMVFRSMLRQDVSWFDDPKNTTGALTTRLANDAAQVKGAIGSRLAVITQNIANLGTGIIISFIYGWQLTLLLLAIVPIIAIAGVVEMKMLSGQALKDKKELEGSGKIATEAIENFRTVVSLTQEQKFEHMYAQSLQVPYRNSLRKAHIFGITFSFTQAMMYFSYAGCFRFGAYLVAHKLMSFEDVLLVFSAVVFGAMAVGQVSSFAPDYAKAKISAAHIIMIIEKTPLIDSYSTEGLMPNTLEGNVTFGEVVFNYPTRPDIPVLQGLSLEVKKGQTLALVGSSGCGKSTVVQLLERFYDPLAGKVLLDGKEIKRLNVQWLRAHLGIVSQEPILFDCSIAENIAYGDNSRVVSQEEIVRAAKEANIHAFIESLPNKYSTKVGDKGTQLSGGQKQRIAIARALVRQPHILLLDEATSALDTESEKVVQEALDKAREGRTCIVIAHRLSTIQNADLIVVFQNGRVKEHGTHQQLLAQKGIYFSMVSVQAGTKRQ

human fibroblasts [2] = experiment: Export of fluorescent hyaluronan oligosaccharides from the cytosol of human fibroblasts; assay type: cell-based
Method: The media were withdrawn and the cells were incubated at 37° C. with DMEM/water (3:2, v/v) for 2 min. The cells were subjected twice to this incubation sequence and then grown further in DMEM. […] Fluorescent high molecular weight hyaluronan and fluorescent oligosaccharides were introduced into the cytosol by osmotic lysis of pinocytotic vesicles. The kinetics of export was measured in a fluorescent ELISA reader in the presence and absence of the hyaluronan transport inhibitor benzbromaron.

MRP transporters = tested on: T2, MRP transporters; conditions: human erythrocytes; cited from earlier work
T2 construct: other: human erythrocytes

chloride channel = conditions: cited from earlier work
HT29 = experiment: Hyaluronan production of colon carcinoma cell line HT29 (versus HT29-mdr); conditions: increasing concentrations
Method: Cells were seeded in 24 multiwell dished with a diameter of 2 cm^2 at a density of 2×10^4 cells/cm^2 in Dulbecco's media containing 10% foetal bovine serum and increasing concentrations of inhibitors. After incubation for 3 days at 37° C. the cells were trypsinized and counted. The concentration of hyaluronan was determined in the culture medium by an ELISA assay [87].

[3] = tested on: human synovial fibroblasts; experiment: Hyaluronan production of human synovial fibroblasts; assay type: cell-based
[4] = tested on: human synovial fibroblasts; experiment: Growth of human synovial fibroblasts; assay type: cell-based
[5] = tested on: osteoarthritic cartilage in rat knee joints; experiment: Iodoacetate rat model of osteoarthritis, proteoglycan loss in knee cartilage; assay type: in vivo
Method: Osteoarthritic damage was induced in the left knees iodoacetate into the synovial cavity. The right knees remained untreated and served as controls. Three rates were feed with normal drinking water and three with drinking water containing Verapamil. After 17 days the rats were sacrificed and the articular cartilage was analysed histologically. Acid polysaccharides were stained with alcian blue and the preparation was counterstained with nuclear fast red.
The animal trials were performed in accordance with the guidelines of the local ethical committee. Osteoarthritic damage was induced in the left knees of 6 Wistar rats by injection of a solution of 50 μl of 10 mM iodoacetate into the synovial cavity. […] After 17 days the rats were sacrificed and the articular cartilage was analysed histologically. […]
Male Wistar rats (Charles River, Sulzfeld, Germany) having a body weight of 150 g were fed on ordinary laboratory diet and were housed in cages with a floor area of 800 cm^2. […] After 21 days, the rats were sacrificed and the articular cartilage was analysed by histology. […] Digital photos were taken and the blue colour of the proteoglycans was quantitatively evaluated by the free Scion Image Software. To eliminate staining artefacts, the staining of proteoglycans on the joint surface was related to the staining density at the […] and expressed as percent. […]

membranes from HT29 = experiment: Hyaluronan transport activity in isolated membranes from HT29; assay type: biochemical, human
[6] = Fibroblast, human fibroblasts, culture medium

Compound	IC50 (human skin fibroblasts; Homo sapiens, Skin fibroblast) [µM]	published inhibitory concentrations IC50 or Ki, MRP2 (MRP2)	published inhibitory concentrations IC50 or Ki, MRP5 (MRP5)	inhibition of hyaluronan transport (words) (hyaluronan transport)	published inhibitory concentrations IC50 or Ki, MRP4 (MRP4)	IC50 (human fibroblasts [1]; [6]) [µM]	published inhibitory concentrations IC50 or Ki, MRP3 (MRP3)	hyaluronan transport / synthase activity in membranes (hyaluronan synthase)	IC50 (hyaluronan synthase) [µM]	hyaluronan in culture medium (human fibroblasts [1])	IC50 (hyaluronan transport) [µM]	IC50 (human fibroblasts [1]; Homo sapiens, Fibroblast) [µM]	other results
CN(Cc1cnc2nc(N)nc(N)c2n1)c1ccc(C(=O)N[C@@H](CCC(=O)O)C(=O)O)cc1 [methotrexate]	~200	substrate	no	did not inhibit	substrate	~200	substrate	did not inhibit	> 400	–	–	–	published inhibitory concentrations IC50 or Ki, MRP1 (MRP1): substrate
COc1ccc(Cl)cc1C(=O)NCCc1ccc(S(=O)(=O)NC(=O)NC2CCCCC2)cc1 [Glyburide]	7	–	–	–	–	~400	–	–	120	partially inhibited	–	–	IC50 (ABCA): ~5 µM; concentration inhibiting MDR1 mediated export of colchicine (MDR1; substrate colchicine): about 100 μM; IC50 (MRP4; read-out: IC50, MRP4 mediated transport of cGMP, substrate cGMP, human erythrocytes): 1.9 µM; inhibition at 400 µM (human fibroblasts [1]; Homo sapiens, Fibroblast, even at 400 μM, read-out: inhibition of hyaluronan secretion): ≤ 50%
CCCCCCCCCCSC[C@H](NC(=O)CC[C@H](N)C(=O)O)C(=O)NCC(=O)O [S-decylglutathione]	–	good	good	very good inhibitor	good	7	low	–	40	–	–	–	–
CCc1oc2ccccc2c1C(=O)c1cc(Br)c(O)c(Br)c1 [Benzbromarone]	75	–	–	very effective inhibitor	–	–	–	almost completely inhibited	12	–	25	30	export of fluorescent hyaluronan oligosaccharides from the cytosol (human fibroblasts [2]): inhibits the export; IC50 (MRP5; read-out: IC50 for MRP5): 150 µM; IC50 (MRP5; substrate PMEA, read-out: IC50, PMEA transport by MRP5): 150 µM; IC50 (MRP5; substrate S-(2,4-dinitrophenyl)glutathione, read-out: IC50, MRP5 mediated transport of S-(2,4-dinitrophenyl)glutathione): < 5 µM; IC50 (MDR1): > 800 µM; inhibition of hyaluronan transport (words) (hyaluronan transport; listed as benzbromarone): inhibited hyaluronan transport; IC50 (MRP4; read-out: IC50, 9-(2-phosphonomethoxyethyl)adenine (PMEA) transport by MRP4, substrate PMEA): 150 µM; IC50 (MRP4; read-out: IC50 for MRP4): 150 µM; IC50 (MRP4; read-out: published inhibitory concentrations IC50 or Ki, MRP4): 150 µM
O=S(=O)(O)c1cc(N=C=S)ccc1C=Cc1ccc(N=C=S)cc1S(=O)(=O)O [DIDS, 4,4-diisothiocyanatostilbene-2,2-disulfonic acid]	–	–	–	partially	–	–	–	–	> 400	–	–	–	IC50 (human skin fibroblasts; human fibroblasts): 250 µM; IC50 (MRP transporters): 150 to 300 µM; IC50 (MRP1): 150 to 300 µM; IC50 (MRP4): 150 to 300 µM; IC50 (human fibroblasts [1]; human fibroblasts, culture medium): 50 µM; Ki (chloride channel): 0.84 µM; decrease of hyaluronan transport activity (hyaluronan synthase; membranes from human fibroblast cell line): 70%
COc1ccc(CCN(C)CCCC(C#N)(c2ccc(OC)c(OC)c2)C(C)C)cc1OC (stereo not drawn) [Verapamil]	20	–	–	inhibited also hyaluronan synthesis	–	–	–	blocked the hyaluronan transport in a concentration dependent manner	~50	reduced	~50	15	hyaluronan transport in HT29 compared with HT29-mdr (HT29): more efficiently blocked hyaluronan transport in HT29 than in HT29-mdr; cell growth (human skin fibroblasts; human skin fibroblasts, increasing concentrations, 3 days): reduced; hyaluronan production of human synovial fibroblasts [3]: inhibited; growth of human synovial fibroblasts [4]: inhibited growth; protection from proteoglycan loss ([5]; administered at the day of injury or three days later, analysed after 21 days): completely protected from proteoglycan loss; protection from proteoglycan loss ([5]; treatment started later than three days, up to 21 days after injury): partially prevent proteoglycan loss; hyaluronan transport activity in membranes, sensitive cell line HT29 (membranes from HT29): inhibition is not complete
